Details: Hot wire method

FC(F)(F)/C=C/Cl [(E)-1-chloro-3,3,3-trifluoroprop-1-ene]
Details	thermal conductivity [W/m/K]
313.49 K, 134 kPa, Gas	0.01209
313.66 K, 195 kPa, Gas	0.01193
313.74 K, 96 kPa, Gas	0.01156
313.74 K, 97 kPa, Gas	0.01206
313.81 K, 164 kPa, Gas	0.01205
314.19 K, 96 kPa, Gas	0.0121
314.29 K, 165 kPa, Gas	0.01203
314.47 K, 132 kPa, Gas	0.01204
314.68 K, 96 kPa, Gas	0.01213
314.8 K, 166 kPa, Gas	0.01203
315 K, 133 kPa, Gas	0.01215
315.2 K, 96 kPa, Gas	0.01218
315.34 K, 166 kPa, Gas	0.01208
315.56 K, 132 kPa, Gas	0.01212
315.75 K, 96 kPa, Gas	0.01223
316.33 K, 96 kPa, Gas	0.01227
321.04 K, 25085 kPa, Liquid	0.08832
321.04 K, 34321 kPa, Liquid	0.09144
321.04 K, 34326 kPa, Liquid	0.09107
321.05 K, 43820 kPa, Liquid	0.0947
321.1 K, 25070 kPa, Liquid	0.08802
321.1 K, 34323 kPa, Liquid	0.09161
321.12 K, 34308 kPa, Liquid	0.0914
321.12 K, 43822 kPa, Liquid	0.09482
321.33 K, 16965 kPa, Liquid	0.08442
321.34 K, 9798 kPa, Liquid	0.08117
321.36 K, 5192 kPa, Liquid	0.07831
321.4 K, 197 kPa, Gas	0.0125
321.4 K, 16967 kPa, Liquid	0.08432
321.41 K, 254 kPa, Gas	0.01268
321.41 K, 460 kPa, Liquid	0.07538
321.42 K, 66597 kPa, Liquid	0.1039
321.43 K, 56114 kPa, Liquid	0.09911
321.44 K, 5187 kPa, Liquid	0.07816
321.44 K, 66587 kPa, Liquid	0.1042
321.45 K, 34301 kPa, Liquid	0.09197
321.46 K, 43814 kPa, Liquid	0.09486
321.47 K, 25082 kPa, Liquid	0.08816
321.47 K, 34329 kPa, Liquid	0.09187
321.47 K, 43832 kPa, Liquid	0.09487
321.48 K, 458 kPa, Liquid	0.07551
321.51 K, 66615 kPa, Liquid	0.1035
321.52 K, 56121 kPa, Liquid	0.0993
321.52 K, 66605 kPa, Liquid	0.1041
321.55 K, 34296 kPa, Liquid	0.09167
321.55 K, 43839 kPa, Liquid	0.09474
321.56 K, 25086 kPa, Liquid	0.08833
321.56 K, 34311 kPa, Liquid	0.09191
321.63 K, 145 kPa, Gas	0.01268
321.7 K, 256 kPa, Gas	0.01247
321.72 K, 196 kPa, Gas	0.01245
321.77 K, 98 kPa, Gas	0.01281
321.78 K, 16953 kPa, Liquid	0.08463
321.81 K, 9811 kPa, Liquid	0.08084
321.85 K, 5178 kPa, Liquid	0.07845
321.86 K, 66588 kPa, Liquid	0.1041
321.88 K, 56118 kPa, Liquid	0.1004
321.89 K, 16957 kPa, Liquid	0.0846
321.91 K, 466 kPa, Liquid	0.07595
321.91 K, 9793 kPa, Liquid	0.08062
321.92 K, 43825 kPa, Liquid	0.09584
321.94 K, 145 kPa, Gas	0.01263
321.94 K, 34296 kPa, Liquid	0.09207
321.94 K, 43828 kPa, Liquid	0.09571
321.96 K, 5173 kPa, Liquid	0.07856
321.96 K, 34304 kPa, Liquid	0.09237
321.97 K, 142 kPa, Gas	0.01247
321.97 K, 25089 kPa, Liquid	0.0883
321.97 K, 66599 kPa, Liquid	0.1033
321.99 K, 66600 kPa, Liquid	0.1033
322 K, 56120 kPa, Liquid	0.09953
322.01 K, 257 kPa, Gas	0.01246

— the NIST ThermoML archive (doi:10.1021/acs.jced.7b00106)
